Assay results reported in PubChem BioAssay AID1963963 (Molecular Pharmacology Branch, DTP, NCI, 2024).

System: 958667-338-R-J2-PDC tumor spheroids viability
Assay: Anticancer human tumor 958667-338-R-J2-PDC patient-derived colon adenocarcinoma cell line growth inhibition [PI3K]
Conditions: spheroids with HUVEC and MSC; for IC50: curve of first compound; for viability, T/C: stronger effect = lower value
How it was run: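 Multi-cell spheroids combine tumor cells with HUVEC and human MSCs, treated with targeted agents alone or with inavolisib, alpelisib, duvelisib or copanlisib. Concentrations fall in half-log steps from at or near clinical Cmax, or from 10 microM where Cmax is unknown; viability read-out.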

[1] = second compound 0.00316 µM, first compound 0.0316 µM
[2] = second compound 0.00316 µM, first compound 0.1 µM
[3] = second compound 0.00316 µM, first compound 0.316 µM
[4] = second compound 0.00316 µM, first compound 1 µM
[5] = second compound 0.00316 µM, first compound 3.16 µM
[6] = second compound 0.00316 µM, first compound 10 µM
[7] = second compound 0.01 µM, first compound 0.0316 µM
[8] = second compound 0.01 µM, first compound 0.1 µM
[9] = second compound 0.01 µM, first compound 0.316 µM
[10] = second compound 0.01 µM, first compound 1 µM
[11] = second compound 0.01 µM, first compound 3.16 µM
[12] = second compound 0.01 µM, first compound 10 µM
[13] = second compound 0.0316 µM, first compound 0.0316 µM
[14] = second compound 0.0316 µM, first compound 0.1 µM
[15] = second compound 0.0316 µM, first compound 0.316 µM
[16] = second compound 0.0316 µM, first compound 1 µM
[17] = second compound 0.0316 µM, first compound 3.16 µM
[18] = second compound 0.0316 µM, first compound 10 µM
[19] = second compound 0.1 µM, first compound 0.0316 µM
[20] = second compound 0.1 µM, first compound 0.1 µM
[21] = second compound 0.1 µM, first compound 0.316 µM
[22] = second compound 0.1 µM, first compound 1 µM
[23] = second compound 0.1 µM, first compound 3.16 µM
[24] = second compound 0.1 µM, first compound 10 µM
[25] = second compound 0.316 µM, first compound 0.0316 µM
[26] = second compound 0.316 µM, first compound 0.1 µM
[27] = second compound 0.316 µM, first compound 0.316 µM
[28] = second compound 0.316 µM, first compound 1 µM
[29] = second compound 0.316 µM, first compound 3.16 µM
[30] = second compound 0.316 µM, first compound 10 µM
[31] = second compound 1 µM, first compound 0.0316 µM
[32] = second compound 1 µM, first compound 0.1 µM
[33] = second compound 1 µM, first compound 0.316 µM
[34] = second compound 1 µM, first compound 1 µM
[35] = second compound 1 µM, first compound 3.16 µM
[36] = second compound 1 µM, first compound 10 µM
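Also: spheroids exposed to compounds for seven days before readout.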

## C#Cc1c(F)ccc2cc(O)cc(-c3ncc4c(N5CC6CCC(C5)N6)nc(OCC56CCCN5CC(F)C6)nc4c3F)c12 (stereo not drawn) + COc1c(OCCCN2CCOCC2)ccc2c3n(c(=NC(=O)c4cnc(N)nc4)nc12)CCN3
Second compound 0.00316 µM
  IC50: > 10 µM
Second compound 0.01 µM
  IC50: > 10 µM
Second compound 0.0316 µM
  IC50: 6.5 µM
Second compound 0.1 µM
  IC50: 1.09 µM
Second compound 0.316 µM
  IC50: < 0.0316 µM
Second compound 1 µM
  IC50: < 0.0316 µM
[1]
  viability, T/C: 112%
[2]
  viability, T/C: 107%
[3]
  viability, T/C: 83.9%
[4]
  viability, T/C: 108%
[5]
  viability, T/C: 86.9%
[6]
  viability, T/C: 74%
[7]
  viability, T/C: 93.4%
[8]
  viability, T/C: 86.9%
[9]
  viability, T/C: 109%
[10]
  viability, T/C: 73.3%
[11]
  viability, T/C: 68.7%
[12]
  viability, T/C: 56.7%
[13]
  viability, T/C: 70.8%
[14]
  viability, T/C: 86.9%
[15]
  viability, T/C: 73.2%
[16]
  viability, T/C: 70.4%
[17]
  viability, T/C: 62.1%
[18]
  viability, T/C: 42.9%
[19]
  viability, T/C: 71.7%
[20]
  viability, T/C: 63.4%
[21]
  viability, T/C: 54.6%
[22]
  viability, T/C: 51.6%
[23]
  viability, T/C: 46.7%
[24]
  viability, T/C: 28%
[25]
  viability, T/C: 35.1%
[26]
  viability, T/C: 41.2%
[27]
  viability, T/C: 35.8%
[28]
  viability, T/C: 32.7%
[29]
  viability, T/C: 20.4%
[30]
  viability, T/C: 10%
[31]
  viability, T/C: 14.1%
[32]
  viability, T/C: 18.1%
[33]
  viability, T/C: 24.2%
[34]
  viability, T/C: 15.9%
[35]
  viability, T/C: 8.98%
[36]
  viability, T/C: 1.67%

## C=CC(=O)N1CCN(c2nc(=O)n(-c3c(C)ccnc3C(C)C)c3nc(-c4c(O)cccc4F)c(F)cc23)C(C)C1 (stereo not drawn) + COc1c(OCCCN2CCOCC2)ccc2c3n(c(=NC(=O)c4cnc(N)nc4)nc12)CCN3
Second compound 0.00316 µM
  IC50: > 10 µM
Second compound 0.01 µM
  IC50: > 10 µM
Second compound 0.0316 µM
  IC50: > 10 µM
Second compound 0.1 µM
  IC50: > 10 µM
Second compound 0.316 µM
  IC50: < 0.0316 µM
Second compound 1 µM
  IC50: < 0.0316 µM
[1]
  viability, T/C: 97.1%
[2]
  viability, T/C: 97.6%
[3]
  viability, T/C: 88.8%
[4]
  viability, T/C: 117%
[5]
  viability, T/C: 103%
[6]
  viability, T/C: 121%
[7]
  viability, T/C: 103%
[8]
  viability, T/C: 103%
[9]
  viability, T/C: 87%
[10]
  viability, T/C: 92.6%
[11]
  viability, T/C: 107%
[12]
  viability, T/C: 94%
[13]
  viability, T/C: 82.1%
[14]
  viability, T/C: 83%
[15]
  viability, T/C: 71.8%
[16]
  viability, T/C: 72.4%
[17]
  viability, T/C: 78.2%
[18]
  viability, T/C: 69.9%
[19]
  viability, T/C: 61%
[20]
  viability, T/C: 72.7%
[21]
  viability, T/C: 52.9%
[22]
  viability, T/C: 62.6%
[23]
  viability, T/C: 72.4%
[24]
  viability, T/C: 64.2%
[25]
  viability, T/C: 36.3%
[26]
  viability, T/C: 36%
[27]
  viability, T/C: 44.4%
[28]
  viability, T/C: 42%
[29]
  viability, T/C: 47.3%
[30]
  viability, T/C: 46.1%
[31]
  viability, T/C: 22.6%
[32]
  viability, T/C: 23.1%
[33]
  viability, T/C: 18.8%
[34]
  viability, T/C: 21.2%
[35]
  viability, T/C: 25.3%
[36]
  viability, T/C: 18.2%

## CC(Cn1ccc(-c2ccc(C#N)c(Cl)c2)n1)NC(=O)c1cc(C(C)O)[nH]n1 (stereo not drawn) + COc1c(OCCCN2CCOCC2)ccc2c3n(c(=NC(=O)c4cnc(N)nc4)nc12)CCN3
Second compound 0.00316 µM
  IC50: > 10 µM
Second compound 0.01 µM
  IC50: > 10 µM
Second compound 0.0316 µM
  IC50: > 10 µM
Second compound 0.1 µM
  IC50: 7.69 µM
Second compound 0.316 µM
  IC50: < 0.0316 µM
Second compound 1 µM
  IC50: < 0.0316 µM
[1]
  viability, T/C: 109%
[2]
  viability, T/C: 89.7%
[3]
  viability, T/C: 111%
[4]
  viability, T/C: 94.9%
[5]
  viability, T/C: 97.7%
[6]
  viability, T/C: 102%
[7]
  viability, T/C: 83.1%
[8]
  viability, T/C: 83.1%
[9]
  viability, T/C: 85.2%
[10]
  viability, T/C: 81.1%
[11]
  viability, T/C: 104%
[12]
  viability, T/C: 80.4%
[13]
  viability, T/C: 75.3%
[14]
  viability, T/C: 74.6%
[15]
  viability, T/C: 62.8%
[16]
  viability, T/C: 72.4%
[17]
  viability, T/C: 76.7%
[18]
  viability, T/C: 69.9%
[19]
  viability, T/C: 49.5%
[20]
  viability, T/C: 66.2%
[21]
  viability, T/C: 56.2%
[22]
  viability, T/C: 59.2%
[23]
  viability, T/C: 58.5%
[24]
  viability, T/C: 47.6%
[25]
  viability, T/C: 33.6%
[26]
  viability, T/C: 40.9%
[27]
  viability, T/C: 37%
[28]
  viability, T/C: 39.4%
[29]
  viability, T/C: 37.3%
[30]
  viability, T/C: 49.2%
[31]
  viability, T/C: 19.5%
[32]
  viability, T/C: 18.7%
[33]
  viability, T/C: 20.6%
[34]
  viability, T/C: 19.9%
[35]
  viability, T/C: 22.5%
[36]
  viability, T/C: 14.6%

## CC1(C)CCC(Nc2ncc(C(F)(F)F)c(-c3c[nH]c4c(P(C)(C)=O)c(C#N)ccc34)n2)CN1 (stereo not drawn) + COc1c(OCCCN2CCOCC2)ccc2c3n(c(=NC(=O)c4cnc(N)nc4)nc12)CCN3
Second compound 0.00316 µM
  IC50: 3.33 µM
Second compound 0.01 µM
  IC50: 1.98 µM
Second compound 0.0316 µM
  IC50: 3.72 µM
Second compound 0.1 µM
  IC50: 1.4 µM
Second compound 0.316 µM
  IC50: < 0.0316 µM
Second compound 1 µM
  IC50: < 0.0316 µM
[1]
  viability, T/C: 90%
[2]
  viability, T/C: 94.7%
[3]
  viability, T/C: 71.1%
[4]
  viability, T/C: 55.7%
[5]
  viability, T/C: 66.4%
[6]
  viability, T/C: 22.9%
[7]
  viability, T/C: 105%
[8]
  viability, T/C: 85.8%
[9]
  viability, T/C: 68.2%
[10]
  viability, T/C: 59.8%
[11]
  viability, T/C: 58.7%
[12]
  viability, T/C: 19.4%
[13]
  viability, T/C: 72.5%
[14]
  viability, T/C: 71.5%
[15]
  viability, T/C: 65.9%
[16]
  viability, T/C: 55%
[17]
  viability, T/C: 60.4%
[18]
  viability, T/C: 20.9%
[19]
  viability, T/C: 69%
[20]
  viability, T/C: 71.9%
[21]
  viability, T/C: 48.2%
[22]
  viability, T/C: 53.7%
[23]
  viability, T/C: 44.8%
[24]
  viability, T/C: 4.88%
[25]
  viability, T/C: 46.3%
[26]
  viability, T/C: 42.9%
[27]
  viability, T/C: 36.8%
[28]
  viability, T/C: 39.5%
[29]
  viability, T/C: 25.6%
[30]
  viability, T/C: 1.02%
[31]
  viability, T/C: 19.9%
[32]
  viability, T/C: 16.8%
[33]
  viability, T/C: 14.9%
[34]
  viability, T/C: 15.8%
[35]
  viability, T/C: 10.2%
[36]
  viability, T/C: 1.04%
